{"source": "PubChem BioAssay AID328", "about": "(DTP/NCI, 2004)", "system": "BDF1 mice, P388 leukemia ip, median survival T/C", "test": "NCI In Vivo Anticancer Drug Screen. Data for tumor model P388 Leukemia (intraperitoneal) in B6D2F1 (BDF1) mice", "details": "endpoint: median survival time, higher = longer survival", "how_it_was_run": "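Survival ratio, drug arm over vehicle arm, in mice with a transplanted tumour.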", "note": "“And” between values parts separate entries of the source, which are not always exact repeats. Identical values can stand only once. Inconclusive results and toxic doses are left out."}
{"smiles": "COC(C(=O)C(O)C(C)O)C1Cc2cc3cc(OC4CC(OC(C)=O)C(OC5CC(O)C(OC)C(C)O5)C(C)O4)cc(O)c3c(O)c2C(=O)C1OC1CC(OC2CC(OC3CC(C)(O)C(OC(=O)C(C)C)C(C)O3)C(O)C(C)O2)C(O)C(C)O1", "note": "(stereo unspecified)", "values": [{"measurement": "T/C", "setting": "dose: 0.05 mg/kg/injection, schedule: Q01DX010 (ip), vehicle: saline", "value": "113 % of control"}, {"measurement": "T/C", "setting": "dose: 0.1 mg/kg/injection, schedule: Q01DX010 (ip), vehicle: saline", "value": "90 % of control"}, {"measurement": "T/C", "setting": "dose: 0.2 mg/kg/injection, schedule: Q01DX010 (ip), vehicle: saline", "value": "154 % of control"}, {"measurement": "T/C", "setting": "dose: 0.25 mg/kg/injection, schedule: Q01DX009 (ip), vehicle: other", "value": "150 % of control"}, {"measurement": "T/C", "setting": "dose: 0.25 mg/kg/injection, schedule: Q01DX009 (ip), vehicle: saline", "value": "111 % of control"}, {"measurement": "T/C", "setting": "dose: 0.25 mg/kg/injection, schedule: Q01DX010 (ip), vehicle: saline", "value": "154 % of control and 172 % of control"}, {"measurement": "T/C", "setting": "dose: 0.36 mg/kg/injection, schedule: Q01DX005 (ip), vehicle: carboxymethylcellulose (CMC)", "value": "155 % of control"}, {"measurement": "T/C", "setting": "dose: 0.37 mg/kg/injection, schedule: Q01DX009 (ip), vehicle: carboxymethylcellulose (CMC)", "value": "155 % of control"}, {"measurement": "T/C", "setting": "dose: 0.37 mg/kg/injection, schedule: Q01DX009 (sc), vehicle: carboxymethylcellulose (CMC)", "value": "100 % of control"}, {"measurement": "T/C", "setting": "dose: 0.38 mg/kg/injection, schedule: Q01DX010 (ip), vehicle: saline", "value": "177 % of control"}, {"measurement": "T/C", "setting": "dose: 0.4 mg/kg/injection, schedule: Q01DX010 (ip), vehicle: saline", "value": "157 % of control and 172 % of control"}, {"measurement": "T/C", "setting": "dose: 0.5 mg/kg/injection, schedule: Q01DX001 (ip), vehicle: other", "value": "104 % of control"}, {"measurement": "T/C", "setting": "dose: 0.5 mg/kg/injection, schedule: Q01DX009 (ip), vehicle: other", "value": "162 % of control"}, {"measurement": "T/C", "setting": "dose: 0.5 mg/kg/injection, schedule: Q01DX009 (ip), vehicle: saline", "value": "94 % of control and 100 % of control"}, {"measurement": "T/C", "setting": "dose: 0.5 mg/kg/injection, schedule: Q01DX010 (ip), vehicle: saline", "value": "190 % of control and 213 % of control"}, {"measurement": "T/C", "setting": "dose: 0.75 mg/kg/injection, schedule: Q01DX005 (ip), vehicle: carboxymethylcellulose (CMC)", "value": "165 % of control"}, {"measurement": "T/C", "setting": "dose: 0.75 mg/kg/injection, schedule: Q01DX009 (ip), vehicle: carboxymethylcellulose (CMC)", "value": "190 % of control"}, {"measurement": "T/C", "setting": "dose: 0.75 mg/kg/injection, schedule: Q01DX009 (sc), vehicle: carboxymethylcellulose (CMC)", "value": "100 % of control"}, {"measurement": "T/C", "setting": "dose: 0.75 mg/kg/injection, schedule: Q01DX010 (ip), vehicle: saline", "value": "218 % of control"}, {"measurement": "T/C", "setting": "dose: 1.0 mg/kg/injection, schedule: Q01DX001 (ip), vehicle: other", "value": "108 % of control"}, {"measurement": "T/C", "setting": "dose: 1.0 mg/kg/injection, schedule: Q01DX001 (sc), vehicle: carboxymethylcellulose (CMC)", "value": "100 % of control"}, {"measurement": "T/C", "setting": "dose: 1.0 mg/kg/injection, schedule: Q01DX009 (ip), vehicle: other", "value": "179 % of control"}, {"measurement": "T/C", "setting": "dose: 1.0 mg/kg/injection, schedule: Q01DX009 (ip), vehicle: saline", "value": "111 % of control and 100 % of control"}, {"measurement": "T/C", "setting": "dose: 1.0 mg/kg/injection, schedule: Q01DX010 (ip), vehicle: saline", "value": "240 % of control and 227 % of control and 195 % of control"}, {"measurement": "T/C", "setting": "dose: 1.0 mg/kg/injection, schedule: Q## X003 (ip), vehicle: carboxymethylcellulose (CMC)", "value": "165 % of control"}, {"measurement": "T/C", "setting": "dose: 1.0 mg/kg/injection, schedule: Q## X008 (ip), vehicle: carboxymethylcellulose (CMC)", "value": "155 % of control"}, {"measurement": "T/C", "setting": "dose: 1.0 mg/kg/injection, schedule: Q## X024 (ip), vehicle: carboxymethylcellulose (CMC)", "value": "110 % of control"}, {"measurement": "T/C", "setting": "dose: 1.5 mg/kg/injection, schedule: Q01DX005 (ip), vehicle: carboxymethylcellulose (CMC)", "value": "215 % of control"}, {"measurement": "T/C", "setting": "dose: 1.5 mg/kg/injection, schedule: Q01DX009 (ip), vehicle: carboxymethylcellulose (CMC)", "value": "235 % of control"}, {"measurement": "T/C", "setting": "dose: 1.5 mg/kg/injection, schedule: Q01DX009 (oral), vehicle: carboxymethylcellulose (CMC)", "value": "100 % of control"}, {"measurement": "T/C", "setting": "dose: 1.5 mg/kg/injection, schedule: Q01DX009 (sc), vehicle: carboxymethylcellulose (CMC)", "value": "104 % of control"}, {"measurement": "T/C", "setting": "dose: 1.5 mg/kg/injection, schedule: Q01DX010 (ip), vehicle: saline", "value": "195 % of control and 218 % of control"}, {"measurement": "T/C", "setting": "dose: 1.6 mg/kg/injection, schedule: Q01DX010 (ip), vehicle: saline", "value": "161 % of control"}, {"measurement": "T/C", "setting": "dose: 2.0 mg/kg/injection, schedule: Q01DX001 (ip), vehicle: other", "value": "116 % of control"}, {"measurement": "T/C", "setting": "dose: 2.0 mg/kg/injection, schedule: Q01DX001 (ip), vehicle: saline", "value": "116 % of control"}, {"measurement": "T/C", "setting": "dose: 2.0 mg/kg/injection, schedule: Q01DX001 (sc), vehicle: carboxymethylcellulose (CMC)", "value": "100 % of control"}, {"measurement": "T/C", "setting": "dose: 2.0 mg/kg/injection, schedule: Q01DX009 (ip), vehicle: saline", "value": "111 % of control"}, {"measurement": "T/C", "setting": "dose: 2.0 mg/kg/injection, schedule: Q01DX010 (ip), vehicle: saline", "value": "227 % of control"}, {"measurement": "T/C", "setting": "dose: 2.0 mg/kg/injection, schedule: Q## X003 (ip), vehicle: carboxymethylcellulose (CMC)", "value": "150 % of control"}, {"measurement": "T/C", "setting": "dose: 2.0 mg/kg/injection, schedule: Q## X024 (ip), vehicle: carboxymethylcellulose (CMC)", "value": "90 % of control"}, {"measurement": "T/C", "setting": "dose: 3.0 mg/kg/injection, schedule: Q01DX005 (ip), vehicle: carboxymethylcellulose (CMC)", "value": "260 % of control"}, {"measurement": "T/C", "setting": "dose: 3.0 mg/kg/injection, schedule: Q01DX009 (ip), vehicle: carboxymethylcellulose (CMC)", "value": "95 % of control"}, {"measurement": "T/C", "setting": "dose: 3.0 mg/kg/injection, schedule: Q01DX009 (oral), vehicle: carboxymethylcellulose (CMC)", "value": "90 % of control"}, {"measurement": "T/C", "setting": "dose: 3.0 mg/kg/injection, schedule: Q01DX009 (sc), vehicle: carboxymethylcellulose (CMC)", "value": "100 % of control"}, {"measurement": "T/C", "setting": "dose: 3.2 mg/kg/injection, schedule: Q01DX010 (ip), vehicle: saline", "value": "114 % of control"}, {"measurement": "T/C", "setting": "dose: 4.0 mg/kg/injection, schedule: Q01DX001 (ip), vehicle: carboxymethylcellulose (CMC)", "value": "120 % of control"}, {"measurement": "T/C", "setting": "dose: 4.0 mg/kg/injection, schedule: Q01DX001 (ip), vehicle: other", "value": "116 % of control"}, {"measurement": "T/C", "setting": "dose: 4.0 mg/kg/injection, schedule: Q01DX001 (oral), vehicle: carboxymethylcellulose (CMC)", "value": "90 % of control"}, {"measurement": "T/C", "setting": "dose: 4.0 mg/kg/injection, schedule: Q01DX001 (sc), vehicle: carboxymethylcellulose (CMC)", "value": "100 % of control"}, {"measurement": "T/C", "setting": "dose: 4.0 mg/kg/injection, schedule: Q01DX009 (ip), vehicle: other", "value": "208 % of control"}, {"measurement": "T/C", "setting": "dose: 4.0 mg/kg/injection, schedule: Q## X008 (ip), vehicle: carboxymethylcellulose (CMC)", "value": "155 % of control"}, {"measurement": "T/C", "setting": "dose: 4.0 mg/kg/injection, schedule: Q## X024 (ip), vehicle: carboxymethylcellulose (CMC)", "value": "100 % of control"}, {"measurement": "T/C", "setting": "dose: 6.0 mg/kg/injection, schedule: Q01DX009 (oral), vehicle: carboxymethylcellulose (CMC)", "value": "90 % of control"}, {"measurement": "T/C", "setting": "dose: 8.0 mg/kg/injection, schedule: Q01DX001 (oral), vehicle: carboxymethylcellulose (CMC)", "value": "90 % of control"}, {"measurement": "T/C", "setting": "dose: 8.0 mg/kg/injection, schedule: Q01DX001 (sc), vehicle: carboxymethylcellulose (CMC)", "value": "109 % of control"}, {"measurement": "T/C", "setting": "dose: 12.0 mg/kg/injection, schedule: Q01DX009 (oral), vehicle: carboxymethylcellulose (CMC)", "value": "100 % of control"}, {"measurement": "T/C", "setting": "dose: 16.0 mg/kg/injection, schedule: Q01DX001 (oral), vehicle: carboxymethylcellulose (CMC)", "value": "100 % of control"}, {"measurement": "T/C", "setting": "dose: 32.0 mg/kg/injection, schedule: Q01DX001 (oral), vehicle: carboxymethylcellulose (CMC)", "value": "90 % of control"}, {"measurement": "T/C", "setting": "dose: 25.0 micrograms/kg/injection, schedule: Q01DX010 (ip), vehicle: saline", "value": "100 % of control"}, {"measurement": "T/C", "setting": "dose: 50.0 micrograms/kg/injection, schedule: Q01DX010 (ip), vehicle: saline", "value": "122 % of control"}, {"measurement": "T/C", "setting": "dose: 62.5 micrograms/kg/injection, schedule: Q01DX010 (ip), vehicle: saline", "value": "109 % of control"}, {"measurement": "T/C", "setting": "dose: 125.0 micrograms/kg/injection, schedule: Q01DX010 (ip), vehicle: saline", "value": "109 % of control"}, {"measurement": "T/C", "setting": "dose: 200.0 micrograms/kg/injection, schedule: Q01DX010 (ip), vehicle: saline", "value": "154 % of control"}, {"measurement": "T/C", "setting": "dose: 400.0 micrograms/kg/injection, schedule: Q01DX010 (ip), vehicle: saline", "value": "154 % of control"}, {"measurement": "T/C", "setting": "dose: 500.0 micrograms/kg/injection, schedule: Q01DX010 (ip), vehicle: saline", "value": "209 % of control"}, {"measurement": "T/C", "setting": "dose: 800.0 micrograms/kg/injection, schedule: Q01DX010 (ip), vehicle: saline", "value": "181 % of control"}]}
